How the values were obtained:
[1] = Liquid; for mass density: 101.33 kPa, Pycnometric method; for vapor or sublimation pressure: Langmuir
[2] = wn = mass fraction of the nth substance listed; conditions: 98 kPa, Liquid, Capillary tube (Ostwald / Ubbelohde) method

CCn1cc[n+](C)c1.CS(=O)(=O)[O-] [1-ethyl-3-methylimidazolium methanesulfonate]
[1]
Conditions | mass density [kg/m3]
293.2 K | 1244
303.2 K | 1237
313.2 K | 1230
323.2 K | 1223
333.2 K | 1217
343.2 K | 1212
353.2 K | 1205
363.2 K | 1198

CCOCCOCCOS(=O)(=O)[O-].CCn1cc[n+](C)c1 [1-ethyl-3-methylimidazolium 2-(2-ethoxyethoxy)ethylsulfate]
[1]
Conditions | mass density [kg/m3] | vapor or sublimation pressure [kPa]
293.2 K | 1215 | –
303.2 K | 1207 | –
313.2 K | 1200 | –
323.2 K | 1193 | –
333.2 K | 1185 | –
343.2 K | 1178 | –
353.2 K | 1170 | –
363.2 K | 1164 | –
419.7 K | – | 3.4e-09
429 K | – | 3.8e-09
430.1 K | – | 5.6e-09
430.7 K | – | 4.9e-09
436.4 K | – | 1.3e-08
438.3 K | – | 8.7e-09
438.4 K | – | 1.1e-08
438.5 K | – | 1.1e-08
440.2 K | – | 1.4e-08
445.7 K | – | 2.6e-08
445.8 K | – | 2.5e-08
448.1 K | – | 2.1e-08

CCOCCOCCOS(=O)(=O)[O-].CCn1cc[n+](C)c1 [1-ethyl-3-methylimidazolium 2-(2-ethoxyethoxy)ethylsulfate] + O
kinematic viscosity [m2/s], [2]
Conditions | w2 = 0.0019 | w2 = 0.0085 | w2 = 0.0195 | w2 = 0.0251 | w2 = 0.0353 | w2 = 0.0495 | w2 = 0.0569 | w2 = 0.0663
303.2 K | 0.000128 | 0.000103 | 7.64e-05 | 6.69e-05 | 5.26e-05 | 4.17e-05 | 3.84e-05 | 3.34e-05
313.2 K | 7.46e-05 | 6.17e-05 | 4.74e-05 | 4.22e-05 | 3.38e-05 | 2.73e-05 | 2.52e-05 | 2.24e-05
323.2 K | 4.76e-05 | 4.02e-05 | 3.17e-05 | 2.83e-05 | 2.31e-05 | 1.92e-05 | 1.76e-05 | 1.58e-05
333.2 K | 3.23e-05 | 2.78e-05 | 2.23e-05 | 2.02e-05 | 1.67e-05 | 1.41e-05 | 1.29e-05 | 1.18e-05
343.2 K | 2.32e-05 | 2.02e-05 | 1.65e-05 | 1.51e-05 | 1.26e-05 | 1.08e-05 | 9.8e-06 | 9.1e-06
353.2 K | 1.81e-05 | 1.53e-05 | 1.26e-05 | 1.17e-05 | 9.9e-06 | 8.5e-06 | 7.8e-06 | 7.3e-06
363.2 K | 1.34e-05 | 1.16e-05 | 1e-05 | 9.3e-06 | 7.9e-06 | 6.9e-06 | 6.3e-06 | 5.9e-06

CCOS(=O)(=O)[O-].CCn1cc[n+](C)c1 [1-ethyl-3-methylimidazolium ethyl sulfate] + O
kinematic viscosity [m2/s], [2]
Conditions | w2 = 0.0038 | w2 = 0.009 | w2 = 0.0164 | w2 = 0.0239 | w2 = 0.0359 | w2 = 0.0483 | w2 = 0.0563 | w2 = 0.066
303.2 K | 5.5e-05 | 5.06e-05 | 4.43e-05 | 4.03e-05 | 3.57e-05 | 3.26e-05 | 3.13e-05 | 2.99e-05
313.2 K | 3.74e-05 | 3.56e-05 | 3.11e-05 | 2.86e-05 | 2.51e-05 | 2.3e-05 | 2.21e-05 | 2.11e-05
323.2 K | 2.69e-05 | 2.63e-05 | 2.34e-05 | 2.17e-05 | 1.99e-05 | 1.69e-05 | 1.63e-05 | 1.55e-05
333.2 K | 2.01e-05 | 1.9e-05 | 1.8e-05 | 1.67e-05 | 1.52e-05 | 1.31e-05 | 1.24e-05 | 1.18e-05
343.2 K | 1.54e-05 | 1.49e-05 | 1.41e-05 | 1.35e-05 | 1.21e-05 | 1.05e-05 | 9.8e-06 | 9.3e-06
353.2 K | 1.21e-05 | 1.17e-05 | 1.13e-05 | 1.11e-05 | 1.01e-05 | 9e-06 | 8.1e-06 | 7.6e-06
363.2 K | 9.8e-06 | 9.4e-06 | 9.1e-06 | 8.8e-06 | 8.4e-06 | 8e-06 | 7e-06 | 6.5e-06
